Results published in patent US20220289794A1, “SYNTHETIC ANTIMICROBIAL PEPTIDES” (priority 2019, published 2022).
Values after ≈ are worked out from the molar mass of the structure shown. Where two headings read alike, the source gives them in different places. Non-standard residues stand in square brackets, D forms with d. Residues, ends and D or L forms follow the SMILES beside them. d2Nal = N[C@H](Cc1ccc2ccccc2c1)C(=O)O

Assays:
[1] = tested on: K. pneumoniae strain ATCC BAA-2470 biofilm
Method: Bacteria. The bacterial strains employed in these assays were obtained from the American Type Culture Collection (ATCC). Each strain was propagated as recommended by the ATCC and each strain was stored as a frozen glycerol stock at −80° C.
Bacterial Propagation. […] Following the incubation, the culture was diluted to an optical density 625 nm (OD625) of 0.1 in cation adjusted Mueller Hinton Broth (CAMHB), which is equivalent to 1×10^8 CFU/mL. The culture was further diluted to 1×10^6 CFU/mL which was used for the assay.
Determination of the Temporal Effects of SPL7013 Addition to Inhibit Biofilm Formation. Each strain of bacteria was adjusted to a concentration of 1×10^6 CFU/mL and added to a 96-well flat-bottomed plate in a volume of 100 mL. One-hundred microliters (100 mL) of each compound at 10 concentrations was added in triplicate wells. The cultures were incubated for 24 hours at 37° C. under the appropriate growth conditions for each organism. Following the incubation, the media was removed, and the formed biofilms were fixed for 1 hour at 60° C. Two-hundred microliters (200 mL) of 0.06% crystal violet was added to the wells for 5 to 10 minutes and the wells were then gently washed three times with deionized H2O to remove the crystal violet. Following crystal violet staining 200 mL of 70% ethanol was added to the wells.

[2] = tested on: Escherichia coli (ATCC BAA-2452)
[3] = tested on: Pseudomonas aeruginosa (ATCC 10145)
[4] = tested on: Staphylococcus aureus ATCC 29213
[5] = tested on: Pseudomonas aeruginosa (ATCC BAA-1744)
[6] = tested on: Streptococcus pneumoniae ATCC 49619; settings: for MIC: ATCC 49619
MRSA [7] = tested on: MRSA
[8] = tested on: Enterococcus faecalis ATCC 29212; settings: for MIC: ATCC 29212
[9] = tested on: Klebsiella pneumoniae ATCC 13883
[10] = tested on: Streptococcus pneumoniae ATCC 51938; settings: for MIC: ATCC 51938
[11] = tested on: Enterococcus faecium ATCC 700221; settings: for MIC: ATCC 700221
[12] = tested on: Bacillus cereus (ATCC-13061)
[13] = tested on: Bacillus subtilis (ATCC-6633)
[14] = tested on: Enterococcus faecalis ATCC 51575; settings: for MIC: ATCC 51575
[15] = tested on: Acinetobacter baumannii (ATCC BAA-1605)
[16] = tested on: Enterococcus faecium ATCC 27270; settings: for MIC: ATCC 27270
[17] = tested on: Pseudomonas aeruginosa (ATCC 27883); settings: P. aeruginosa ATCC 27883
in vitro = settings: human, fresh human red blood cells (washed), pH 7.4
Method: Hemolytic Assay. We investigated the hemolytic effect (hemolytic assay) of the compounds on fresh human red blood cells to determine the cytotoxicity of the compounds. The hemolytic assay was conducted by serial dilution using 1% Triton X, 0.2% Triton X and PBS buffer pH 7.4 as controls. […] 3 mL of the fresh blood sample was washed severally by adding about 10 mL PBS buffer pH 7.4 and centrifuge at 4000 G until the supernatant was cleared. The washed blood sample was diluted to 20 mL volume to be used in the study. An aliquot of 190 μL blood sample was added to 10 μL compound sample in an Eppendorf tube and incubated for 30 min. After incubation, it was centrifuged at 4000 G for 5 min. 100 μL supernatant aliquot was diluted with 1 mL PBS buffer, and the absorbance was measured at 567 nm for the sample. % hemolysis is calculated as follows:
Where AX is the absorbance at various serial concentrations A0 absorbance of PBS buffer pH 7.4 AX absorbance of 0.2% Triton X control equivalent to 100%

[18] = tested on: Methicillin-resistant Staphylococcus aureus MRSA (ATCC BAA-1556)
[19] = tested on: Escherichia coli (ATCC 25922)
B. subtilis (ATCC-6633) = experiment: Broad-spectrum activity against Gram-Positive bacteria (MIC); assay type: cell-based; set-up: unit not given here
E. coli (ATCC BAA-2452) = experiment: Broad-spectrum activity against Gram-Negative bacteria (MIC); assay type: cell-based; settings: Table 16, Gram-negative panel
B. cereus (ATCC-13061) = experiment: Broad-spectrum activity against Gram-Positive bacteria (MIC); assay type: cell-based; set-up: unit not given here
[20] = tested on: Klebsiella pneumoniae (ATCC BAA-1705); settings: Table 16, Gram-negative panel
[21] = tested on: Escherichia coli (E. Coli, ATCC 25922); settings: for MIC of antibiotic: Escherichia coli (ATCC 25922), antibiotic alone
[22] = tested on: P. aeruginosa (ATCC BAA-1744); experiment: Broad-spectrum activity against Gram-Negative bacteria (MIC); assay type: cell-based; settings: Table 16, Gram-negative panel
[23] = tested on: P. aeruginosa (ATCC 10145); experiment: as above; assay type: cell-based; settings: Table 16, Gram-negative panel
[24] = tested on: Pseudomonas aeruginosa (PSA, ATCC 27883); experiment: Synergy checkerboard assay (FIC index); assay type: cell-based; settings: Pseudomonas aeruginosa (ATCC 27883)
[25] = tested on: A. baumannii (ATCC BAA-1605); experiment: Broad-spectrum activity against Gram-Negative bacteria (MIC); assay type: cell-based; settings: Table 16, Gram-negative panel
MRSA (ATCC BAA-1556) = settings: for MIC of antibiotic: MRSA (ATCC BAA-1556), antibiotic alone
[26] = tested on: Klebsiella pneumoniae (KPC, ATCC BAA-1705); settings: ATCC BAA-1705
MRSA [27] = experiment: In vivo Galleria Mellonella Assay (MRSA infection); settings: MRSA-infected G. mellonella, after one week
[28] = tested on: Methicillin-resistant Staphylococcus aureus MRSA (ATCC BAA-1556); experiment: microbe, parasite or virus in culture; settings: ATCCBAA1556|MRSA, 24 h, read-out: MRSA (ATCC BAA-1556) MIC, Table 31, [R5W4] (IFX-301), antibiotics alone and PHY-MIX (1:1 w/w)
[29] = tested on: Pseudomonas aeruginosa (PSA, ATCC 27883); experiment: microbe, parasite or virus in culture; settings: ATCC27883, 24 h
[30] = tested on: Escherichia coli (E. Coli, ATCC 25922); experiment: microbe, parasite or virus in culture; settings: ATCC25922, 24 h, read-out: Escherichia coli (ATCC 25922) MIC, Table 31, [R5W4] (IFX-301), antibiotics alone and PHY-MIX (1:1 w/w)

Compound: CN(C)c1cc(NC(=O)CNC(C)(C)C)c(O)c2c1C[C@H]1C[C@H]3[C@H](N(C)C)C(O)=C(C(N)=O)C(=O)[C@@]3(O)C(O)=C1C2=O [Tigecycline, reference compound]
- change of biofilm formation ([1]; K. pneumoniae, two of the lowest concentrations, 0.2 mg/mL and 0.1 mg/mL): increase in biofilm formation

Compound: N=C(N)NCCC[C@@H]1NC(=O)[C@H](CCCNC(=N)N)NC(=O)[C@H](CCCNC(=N)N)NC(=O)[C@H](CCCCN)NC(=O)[C@H](Cc2c[nH]c3ccccc23)NC(=O)[C@H](Cc2c[nH]c3ccccc23)NC(=O)[C@H](Cc2c[nH]c3ccccc23)NC(=O)[C@H](Cc2c[nH]c3ccccc23)NC(=O)[C@H](CCCNC(=N)N)NC(=O)[C@H](CCCNC(=N)N)NC1=O [[R5W4K] (IFX-315)] (cyclo(RRRRRWWWWK))
- MIC ([2]; ATCC BAA-2452): 25 µg/mL (≈ 15.1 µM)
- MIC ([3]; ATCC 10145): 32 µg/mL (≈ 19.3 µM)
- MIC [4]: 8 µg/mL (≈ 4.84 µM)
- MIC ([5]; ATCC BAA-1744): 16 µg/mL (≈ 9.67 µM)
- MIC (PSA): 16 µg/mL (≈ 9.67 µM)
- MIC [6]: 2 µg/mL (≈ 1.21 µM)
- MIC (MRSA [7]): 8 µg/mL (≈ 4.84 µM)
- MIC [8]: 16 µg/mL (≈ 9.67 µM)
- MIC (KPC): 32 µg/mL (≈ 19.3 µM)
- MIC ([9]; ATCC 13883): 8 µg/mL (≈ 4.84 µM)
- MIC [10]: 2 µg/mL (≈ 1.21 µM)
- MIC [11]: 8 µg/mL (≈ 4.84 µM)
- MIC [12]: 16 µg/mL (≈ 9.67 µM)
- MIC [13]: 8 µg/mL (≈ 4.84 µM)
- MIC [14]: 32 µg/mL (≈ 19.3 µM)
- MIC ([15]; ATCC BAA-1605): 32 µg/mL (≈ 19.3 µM)
- MIC [16]: 8 µg/mL (≈ 4.84 µM)
- MIC (E. coli): 16 µg/mL (≈ 9.67 µM)

Compound: N=C(N)NCCC[C@@H]1NC(=O)[C@@H](CCCNC(=N)N)NC(=O)[C@H](CCCNC(=N)N)NC(=O)[C@@H](Cc2ccc3ccccc3c2)NC(=O)[C@@H](Cc2ccc3ccccc3c2)NC(=O)[C@H](Cc2c[nH]c3ccccc23)NC(=O)[C@@H](CCCNC(=N)N)NC1=O [IFX-111, c[Arg-arg-Arg-arg-Trp-naI-naI]] (cyclo(R[dR]R[dR]W[d2Nal][d2Nal]))
- MIC S. aureus ATCC 29213 (S. aureus ATCC 29213; ATCC 29213): 1.5 µg/mL (≈ 1.24 µM)
- MIC P. aeruginosa ATCC 27883 [17]: 12.5 µg/mL (≈ 10.4 µM)
- inhibition of biofilm formation ([1]; ATCC BAA-2470): ≤ 23%
- HC50 at 0.5 h (in vitro): 205 µg/mL
- MIC MRSA ATCC BAA-1556 ([18]; ATCC BAA-1556): 1.5 µg/mL (≈ 1.24 µM)
- MIC E. coli ATCC 25922 ([19]; ATCC 25922): 6.2 µg/mL (≈ 5.14 µM)

Compound: c[Arg-Arg-arg-arg-naI-Trp-naI] [IFX-135]
- Broad-spectrum activity B. subtilis (ATCC-6633) (B. subtilis (ATCC-6633)): 1.5
- MIC ([2]; Table 36, Escherichia coli (ATCC BAA-2452)): 16 µg/mL
- MIC ([3]; Table 36, Pseudomonas aeruginosa (ATCC 10145)): 32 µg/mL
- MIC E. coli (ATCC BAA-2452) (E. coli (ATCC BAA-2452)): 12.5 µg/mL
- MIC [4]: 2 µg/mL
- MIC S. aureus ATCC 29213 (S. aureus ATCC 29213; S. aureus ATCC 29213): 1.5 µg/mL
- Broad-spectrum activity B. cereus (ATCC-13061) (B. cereus (ATCC-13061)): 6.2
- MIC K. pneumonia (ATCC BAA-1705) [20]: 12.5 µg/mL
- MIC ([5]; Table 36, Pseudomonas aeruginosa (ATCC BAA-1744)): 16 µg/mL
- MIC P. aeruginosa ATCC 27883 [17]: 32 µg/mL
- IFX135 MIC ([21]; ATCC 25922): 8 µg/mL
- MIC (PSA; Table 36, P. aeruginosa ATCC 27883): 32 µg/mL
- MIC [6]: 16 µg/mL
- Broad-spectrum activity S. pneumoniae (ATCC 49619) ([6]; S. pneumoniae ATCC 49619): 12.5
- MIC (MRSA [7]): 2 µg/mL
- MIC [8]: 8 µg/mL
- Broad-spectrum activity E. faecalis (ATCC 29212) ([8]; E. faecalis ATCC 29212): 6.2
- MIC P. aeruginosa (ATCC BAA-1744) [22]: 12.5 µg/mL
- MIC (KPC; Table 36, Klebsiella pneumoniae (ATCC BAA-1705)): 16 µg/mL
- MIC P. aeruginosa (ATCC 10145) [23]: 25 µg/mL
- IFX135 MIC ([24]; Table 27, peptide alone): 32 µg/mL
- MIC A. baumannii (ATCC BAA-1605) [25]: 12.5 µg/mL
- MIC K. pneumonia (ATCC 13883) ([9]; Table 16, Gram-negative panel): 50 µg/mL
- MIC ([9]; Table 36, Klebsiella pneumonia (ATCC 13883)): 64 µg/mL
- MIC [10]: 16 µg/mL
- Broad-spectrum activity S. pneumoniae (ATCC 51938) ([10]; S. pneumoniae ATCC 51938): 12.5
- MIC [11]: 4 µg/mL
- Broad-spectrum activity E. faecium (ATCC 700221) ([11]; E. faecium ATCC 700221): 3.1
- MIC [12]: 8 µg/mL
- MIC [13]: 2 µg/mL
- MIC [14]: 16 µg/mL
- Broad-spectrum activity E. faecalis (ATCC 51575) ([14]; E. faecalis ATCC 51575): 12.5
- IFX135 MIC (MRSA (ATCC BAA-1556); ATCC BAA-1556): 2 µg/mL
- MIC ([15]; Table 36, Acinetobacter baumannii (ATCC BAA-1605)): 16 µg/mL
- MIC [16]: 4 µg/mL
- Broad-spectrum activity E. faecium (ATCC 27270) ([16]; E. faecium ATCC 27270): 3.1
- MIC MRSA ATCC BAA-1556 ([18]; MRSA ATCC BAA-1556): 1.5 µg/mL
- MIC E. coli ATCC 25922 ([19]; E. coli ATCC 25922): 8 µg/mL
- MIC (E. coli; Table 36, E. coli ATCC 25922): 8 µg/mL
- IFX135 MIC [26]: 16 µg/mL

Compound: CN(C)[C@@H]1C(O)=C(C(N)=O)C(=O)[C@@]2(O)C(O)=C3C(=O)c4c(O)cccc4[C@@](C)(O)[C@H]3C[C@@H]12 [tetracycline, reference compound]
- MIC of antibiotic [21]: 8 µg/mL
- MIC of antibiotic ([21]; Table 25): 8 µg/mL
- MIC of antibiotic ([21]; Table 26): 8 µg/mL
- larvae killed (MRSA [27]): 56.3%
- MIC [28]: 0.25 µg/mL (≈ 0.563 µM)
- MIC of antibiotic ([24]; antibiotic alone): 32 µg/mL
- MIC of antibiotic ([24]; Table 26, antibiotic alone): 32 µg/mL
- antibiotic MIC ([24]; Table 27, antibiotic alone): 32 µg/mL
- MIC ([29]; read-out: Pseudomonas aeruginosa (ATCC 27883) MIC, Table 29, [R6W4] (IFX-318), antibiotics alone and PHY-MIX (1:1 w/w)): 32 µg/mL (≈ 72 µM)
- MIC ([29]; read-out: Pseudomonas aeruginosa (ATCC 27883) MIC, Table 31, [R5W4] (IFX-301), antibiotics alone and PHY-MIX (1:1 w/w)): 32 µg/mL (≈ 72 µM)
- MIC of antibiotic (MRSA (ATCC BAA-1556)): 0.25 µg/mL
- MIC of antibiotic (MRSA (ATCC BAA-1556); Table 25): 0.250 µg/mL
- MIC [30]: 8 µg/mL (≈ 18 µM)
